Where two headings read alike, the source gives them in different places. *1 amine or outer side, *2 acyl side, *3 side chain or, on linkers, in order; H or OH if unused. Where a SMILES comes first, the peptide text is derived from it. Bridges are numbered along the chain shown (N, C = ends). [ ]: non-standard residue; d: D form. The star is where a group is joined. X16 = NC(=O)[C@H](CCCCNC(=O)CN1CCN2CCN3CCN(CC1)CC(=O)[O][Lu]([O]C(=O)C2)[O]C(=O)C3)NC(=O)CCC(=O)NCCCOCCOCCOCCCN*; Pro(trans-4-NH2) = O=C([C@@H]1C[C@@H](N[*:3])CN1[*:1])[*:2]; DOTA = O=C(O)CN1CCN(CC(=O)O)CCN(CC(=O)*)CCN(CC(=O)O)CC1; Trp(5-Cl) = N[C@@H](Cc1c[nH]c2ccc(Cl)cc12)C(=O)O; Phe(3,4-Cl2) = N[C@@H](Cc1ccc(Cl)c(Cl)c1)C(=O)O; Pyridine(2,6-diCH2) = c1cc(C[*:1])nc(C[*:2])c1; X22 = O=C([C@H](Cc1cccc(Cl)c1Cl)N[*:1])[*:2]; 1Nal = N[C@@H](Cc1cccc2ccccc12)C(=O)O; mXylylene = c1cc(C[*:1])cc(C[*:2])c1; Hyp = O=C(O)[C@@H]1C[C@@H](O)CN1; 2Thi = N[C@@H](Cc1cccs1)C(=O)O; Ac6c = NC1(C(=O)O)CCCCC1; Thp = NC1(C(=O)O)CCOCC1; Aib = CC(C)(N)C(=O)O; Sar = CNCC(=O)O
Target: T1, GIPR (CHO-K1-hGIPR cells) (Homo sapiens, UniProt P48546)
T1 construct: host or cells: CHO-K1
T1 sequence (P48546 22-466): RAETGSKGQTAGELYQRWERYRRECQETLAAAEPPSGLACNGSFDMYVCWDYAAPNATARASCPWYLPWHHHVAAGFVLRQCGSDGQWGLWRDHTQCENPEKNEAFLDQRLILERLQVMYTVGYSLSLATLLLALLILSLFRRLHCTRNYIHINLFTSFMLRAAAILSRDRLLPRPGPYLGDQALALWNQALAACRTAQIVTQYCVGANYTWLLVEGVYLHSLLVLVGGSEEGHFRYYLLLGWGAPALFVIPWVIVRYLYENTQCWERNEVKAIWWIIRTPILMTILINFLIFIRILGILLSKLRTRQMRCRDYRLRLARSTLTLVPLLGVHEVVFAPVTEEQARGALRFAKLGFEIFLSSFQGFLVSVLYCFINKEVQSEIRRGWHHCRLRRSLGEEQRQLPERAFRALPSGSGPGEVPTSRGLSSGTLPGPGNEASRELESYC
Experiment: FACS binding assay
Outline: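 Peptide binding read by flow cytometry as APC-channel median fluorescence, fitted with a four-parameter logistic to yield EC50 or IC50. Cells were hGIPR-transfected CHO-K1 in PBS with 1% FCS, detected with 1 μg/mL APC-streptavidin, 30 min on ice.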

[1] = competition with 20 nM GIP-057, 4° C. for 1 hour, read-out: pIC50 Category (converted)

| IC50 [1] [nM] | Structure (SMILES) | further results |
| --- | --- | --- |
| < 10 | CC[C@H](C)[C@@H]1NC(=O)[C@H](CC(C)C)NC(=O)C2(CCOCC2)NC(=O)[C@@H](NC(=O)[C@@H](CC(C)C)NC(=O)[C@@H](NC(=O)[C@@H]2C[C@@H](O)CN2C(=O)[C@H](Cc2c[nH]c3ccc(Cl)cc23)NC(=O)[C@H](Cc2c[nH]c3ccccc23)NC(=O)[C@H](CC(=O)O)NC(C)=O)C(C)C)CSCc2cccc(n2)CSC[C@@H](C(N)=O)NC1=O [GIP-385, Ac-Asp-Trp-5Clw-Hyp-Val-leu-[Cys(2Lut)-Thp-Leu-Ile-Cys]-NH2] (Ac-DW[Trp(5-Cl)][Hyp]V[dL]C[Thp]LIC-NH2; linker 7-11 via Pyridine(2,6-diCH2)) | – |
| – | CC[C@H](C)[C@@H]1NC(=O)[C@H](CC(C)C)NC(=O)C2(CCOCC2)NC(=O)[C@@H](NC(=O)[C@@H](CC(C)C)NC(=O)[C@H](CCC(=O)O)NC(=O)[C@@H]2C[C@@H](O)CN2C(=O)[C@H](Cc2c[nH]c3ccc(Cl)cc23)NC(=O)[C@H](Cc2cccc(Cl)c2Cl)NC(=O)[C@H](CC(=O)O)NC(C)=O)CSCc2cccc(n2)CSC[C@@H](C(N)=O)NC1=O [GIP-226, Ac-Asp-Egp-5Clw-Hyp-Glu-leu-[Cys(2Lut)-Thp-Leu-Ile-Cys]-NH2] (Ac-D[X22][Trp(5-Cl)][Hyp]E[dL]C[Thp]LIC-NH2; linker 7-11 via Pyridine(2,6-diCH2)) | IC50 (competition with 20 nM GIP-057, 4° C., 1 hour, read-out: pIC50 Category (converted)): < 10 nM |
| 10 to 79.4 | CC(=O)N[C@@H](CC(=O)O)C(=O)N[C@@H](Cc1c[nH]c2ccccc12)C(=O)N[C@@H](Cc1c[nH]c2ccc(Cl)cc12)C(=O)N1C[C@H](O)C[C@H]1C(=O)N[C@@H](CCC(=O)O)C(=O)N[C@H](CC(C)C)C(=O)N[C@H]1CSCc2cccc(n2)CSC[C@@H](C(=O)N[C@H](CCCCNC(=O)CN2CCN(CC(=O)O)CCN(CC(=O)O)CCN(CC(=O)O)CC2)C(N)=O)NC(=O)[C@H](Cc2ccccc2)NC(=O)[C@H](CC(C)C)NC(=O)C2(CCOCC2)NC1=O [GIP-389, Ac-Asp-Trp-5Clw-Hyp-Glu-leu-[Cys(2Lut)-Thp-Leu-Phe-Cys]-lys (DOTA)-NH2] (Ac-DW[Trp(5-Cl)][Hyp]E[dL]C[Thp]LFC[dK](DOTA)-NH2; linker 7-11 via Pyridine(2,6-diCH2)) | – |
| – | CC[C@H](C)[C@@H]1NC(=O)[C@H](CC(C)C)NC(=O)C2(CCCCC2)NC(=O)[C@@H](NC(=O)[C@@H](CC(C)C)NC(=O)[C@H](CCC(=O)O)NC(=O)[C@@H]2CCCN2C(=O)[C@H](Cc2cccc3ccccc23)NC(=O)[C@H](Cc2c[nH]c3ccccc23)NC(=O)[C@H](CC(=O)O)NC(C)=O)CSCc2cccc(c2)CSC[C@@H](C(=O)NCCCOCCOCCOCCCNC(=O)CCC(=O)N[C@@H](CCCCNC(=O)CN2CCN3CCN4CCN(CC2)CC(=O)[O][Lu]([O]C(=O)C3)[O]C(=O)C4)C(N)=O)NC1=O [GIP-173, Ac-Asp-Trp-1Ni-Pro-Glu-leu-[Cys(3MeBn)-Egz-Leu-Ile-Cys]-Ttds-Lys(LuDOTA)-NH2] (Ac-DW[1Nal]PE[dL]C[Ac6c]LIC-X16; linker 7-11 via mXylylene) | IC50 (pIC50 Category, competition with 20 nM GIP-057, 4° C., 1 hour): 10 to 79.4 nM |
| > 1000 | CC[C@H](C)[C@@H]1NC(=O)[C@H](CC(C)C)NC(=O)C(C)(C)NC(=O)[C@@H](NC(=O)[C@H](Cc2cccs2)NC(=O)[C@H](CCC(=O)O)NC(=O)[C@@H]2CCCN2C(=O)[C@H](Cc2cccc3ccccc23)NC(=O)[C@H](Cc2c[nH]c3ccccc23)NC(=O)[C@H](CC(=O)O)NC(C)=O)CSCc2cccc(c2)CSC[C@@H](C(N)=O)NC1=O [GIP-343, Ac-Asp-Trp-1Ni-Pro-Glu-Thi-[Cys(3MeBn)-Aib-Leu-Ile-Cys]-NH2] (Ac-DW[1Nal]PE[2Thi]C[Aib]LIC-NH2; linker 7-11 via mXylylene) | – |
| > 1000 | CC[C@H](C)[C@@H]1NC(=O)[C@H](CC(C)C)NC(=O)C2(CCOCC2)NC(=O)[C@@H](NC(=O)[C@@H](CC(C)C)NC(=O)[C@H](CCC(=O)O)NC(=O)CN(C)C(=O)[C@H](Cc2ccc(Cl)c(Cl)c2)NC(=O)[C@H](Cc2ccc(Cl)c(Cl)c2)NC(=O)[C@H](CC(=O)O)NC(C)=O)CSCc2cccc(n2)CSC[C@@H](C(N)=O)NC1=O [GIP-357, Ac-Asp-Eaa-Eaa-Nmg-Glu-leu-[Cys(2Lut)-Thp-Leu-Ile-Cys]-NH2] (Ac-D[Phe(3,4-Cl2)][Phe(3,4-Cl2)][Sar]E[dL]C[Thp]LIC-NH2; linker 7-11 via Pyridine(2,6-diCH2)) | – |
| 10 to 79.4 | CC(=O)N[C@@H](CC(=O)O)C(=O)N[C@@H](Cc1c[nH]c2ccccc12)C(=O)N[C@@H](Cc1c[nH]c2ccc(Cl)cc12)C(=O)N1C[C@H](NC(=O)CN2CCN(CC(=O)O)CCN(CC(=O)O)CCN(CC(=O)O)CC2)C[C@H]1C(=O)N[C@@H](CCC(=O)O)C(=O)N[C@H](CC(C)C)C(=O)N[C@H]1CSCc2cccc(n2)CSC[C@@H](C(N)=O)NC(=O)[C@H](Cc2ccccc2)NC(=O)[C@H](CC(C)C)NC(=O)C2(CCOCC2)NC1=O [GIP-391, Ac-Asp-Trp-5Clw-Tap (DOTA)-Glu-leu-[Cys(2Lut)-Thp-Leu-Phe-Cys]-NH2] (Ac-DW[Trp(5-Cl)][Pro(trans-4-NH2)](DOTA)E[dL]C[Thp]LFC-NH2; linker 7-11 via Pyridine(2,6-diCH2)) | – |

Reference: US20250296971A1, “GASTRIC INHIBITORY PEPTIDE RECEPTOR LIGANDS” (priority 2021, published 2025)
